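GI50 is the concentration that inhibits growth by half. Definition used: TGI = concentration required for complete inhibition of growth.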
Key:
Assay in all cases: NCI tumour cell line growth inhibition, 384-well format
[1] = system: 786-0 renal
[2] = system: A549 NSCLC
[3] = system: BT-549 breast
[4] = system: CCRF-CEM leukemia
[5] = system: COLO 205 colon
[6] = system: DU-145 prostate
[7] = system: EKVX NSCLC
[8] = system: HCC-2998 colon
[9] = system: HCT-116 colon
[10] = system: HCT-15 colon
[11] = system: HL-60(TB) leukemia
[12] = system: HOP-62 NSCLC
[13] = system: HOP-92 NSCLC
[14] = system: HS 578T breast
[15] = system: HT29 colon
[16] = system: IGROV1 ovarian
[17] = system: KM12 colon
[18] = system: LOX IMVI melanoma
[19] = system: M14 melanoma
[20] = system: MALME-3M melanoma
[21] = system: MCF7 breast
[22] = system: MDA-MB-231 breast
[23] = system: MDA-MB-435 melanoma
[24] = system: MDA-MB-468 breast
[25] = system: MOLT-4 leukemia
[26] = system: NCI-H226 lung

Compound: COc1ccc(-c2cc3c(C)nc(N)nc3n(C3CCC(OCCO)CC3)c2=O)cn1 (configuration not stated)
- GI50 [1]: 268 nM
- TGI [1]: 1530 nM
- GI50 [2]: 173 nM
- TGI [2]: 1100 nM
- GI50 [3]: 114 nM
- TGI [3]: 630 nM
- GI50 [4]: 59.7 nM
- TGI [4]: 1150 nM
- GI50 [5]: 126 nM
- TGI [5]: 1350 nM
- GI50 [6]: 188 nM
- TGI [6]: 23800 nM
- GI50 [7]: 62.3 nM
- TGI [7]: 447 nM
- GI50 [8]: 222 nM
- TGI [8]: 1670 nM
- GI50 [9]: 260 nM
- TGI [9]: 10500 nM
- GI50 [10]: 89.8 nM
- TGI [10]: 12800 nM
- GI50 [11]: 17.9 nM
- TGI [11]: 191 nM
- GI50 [12]: 178 nM
- TGI [12]: 1500 nM
- GI50 [13]: 43.1 nM
- TGI [13]: 302 nM
- GI50 [14]: 42.9 nM
- TGI [14]: 235 nM
- GI50 [15]: 228 nM
- TGI [15]: 5150 nM
- GI50 [16]: 24.1 nM
- TGI [16]: 80.3 nM
- GI50 [17]: 318 nM
- TGI [17]: 33200 nM
- GI50 [18]: 222 nM
- TGI [18]: 1150 nM
- GI50 [19]: 97.8 nM
- TGI [19]: 4560 nM
- GI50 [20]: 24.7 nM
- TGI [20]: 143 nM
- GI50 [21]: 20.7 nM
- TGI [21]: 12700 nM
- GI50 [22]: 229 nM
- TGI [22]: 2370 nM
- GI50 [23]: 220 nM
- TGI [23]: 1610 nM
- GI50 [24]: 26.7 nM
- TGI [24]: 146 nM
- GI50 [25]: 31.8 nM
- TGI [25]: 160 nM
- GI50 [26]: 191 nM
- TGI [26]: 960 nM

Source: PubChem BioAssay (NCI)
